In the supplement of paper PMC6045584:
± gives the standard deviation of the averaged measurements.

Experiments:
[1] = compound: O=c1[nH]cc(F)c(=O)[nH]1 [FLUOROURACIL]; assay: surviving fraction relative to DMSO-only wells; higher = less growth inhibition; conditions: exposure time: 5 days
Summary of the method: (§1)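 Continuous five-day exposure to inhibitors at 0.5, 1, 5, 10, 50, 100, 500 and 1000 nM started 24 hours after log-phase tumour cell lines were seeded at 250–500 cells per well in 384-well plates. Luminescence was read after 10 minutes at room temperature. Viability is given as surviving fraction, meaning CellTiter-Glo luminescence normalised to the median of DMSO-only wells.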

[2] = compound: COc1cc2c(cc1O)CC[C@@H]1[C@@H]2CC[C@]2(C)[C@@H](O)CC[C@@H]12 [2-METHOXYESTRADIOL]; assay: as above; conditions: exposure time: 5 days
Summary of the method: as §1

Row | Test System | surviving fraction ([1]; 0.5 nM) | surviving fraction ([1]; 1 nM) | surviving fraction ([1]; 5 nM) | surviving fraction ([1]; 10 nM) | surviving fraction ([1]; 50 nM) | surviving fraction ([1]; 100 nM) | surviving fraction ([1]; 500 nM) | surviving fraction ([1]; 1000 nM) | surviving fraction ([2]; 0.5 nM) | surviving fraction ([2]; 1 nM) | surviving fraction ([2]; 5 nM) | surviving fraction ([2]; 10 nM) | surviving fraction ([2]; 50 nM) | surviving fraction ([2]; 100 nM) | surviving fraction ([2]; 500 nM) | surviving fraction ([2]; 1000 nM)
1 | CCK81 LARGE INTESTINE | 0.849 ± 0.12 | 0.804 ± 0.081 | 0.764 ± 0.086 | 0.835 ± 0.13 | 0.851 ± 0.079 | 0.751 ± 0.075 | 0.775 ± 0.042 | 0.609 ± 0.084 | 0.764 ± 0.17 | 0.801 ± 0.13 | 0.773 ± 0.027 | 0.752 ± 0.059 | 0.776 ± 0.076 | 0.779 ± 0.03 | 0.574 ± 0.076 | 0.249 ± 0.02
2 | G292 BONE | 0.993 ± 0.028 | 0.965 ± 0.051 | 1.02 ± 0.037 | 1.01 ± 0.03 | 0.994 ± 0.051 | 0.939 ± 0.027 | 0.941 ± 0.017 | 0.759 ± 0.054 | 0.988 ± 0.035 | 0.956 ± 0.026 | 1.04 ± 0.035 | 0.994 ± 0.049 | 0.982 ± 0.061 | 0.919 ± 0.029 | 0.39 ± 0.013 | 0.234 ± 0.017
3 | HCC38 BREAST | 1.01 ± 0.2 | 0.97 ± 0.11 | 1.02 ± 0.17 | 1.11 ± 0.14 | 0.8 ± 0.092 | 0.727 ± 0.14 | 0.689 ± 0.027 | 0.644 ± 0.097 | 1.28 ± 0.069 | 1.28 ± 0.15 | 1.12 ± 0.26 | 1.21 ± 0.18 | 1.35 ± 0.15 | 1.02 ± 0.36 | 0.76 ± 0.074 | 0.349 ± 0.028
4 | HCC70 BREAST | 1.06 ± 0.054 | 1.08 ± 0.12 | 1.14 ± 0.083 | 1.12 ± 0.028 | 1.04 ± 0.092 | 1.03 ± 0.06 | 0.778 ± 0.047 | 0.735 ± 0.053 | 0.978 ± 0.05 | 1.06 ± 0.064 | 1.03 ± 0.062 | 1.07 ± 0.016 | 1.03 ± 0.14 | 1.01 ± 0.1 | 0.629 ± 0.044 | 0.212 ± 0.043
5 | HMLE3 BREAST | 1.05 ± 0.097 | 1.11 ± 0.03 | 1.09 ± 0.15 | 1.13 ± 0.043 | 1.06 ± 0.091 | 0.955 ± 0.065 | 0.838 ± 0.034 | 0.702 ± 0.15 | 0.913 ± 0.033 | 0.964 ± 0.037 | 0.991 ± 0.059 | 1.05 ± 0.031 | 0.987 ± 0.068 | 0.887 ± 0.059 | 0.937 ± 0.064 | 0.602 ± 0.035
6 | HMT3552 BREAST | 0.951 ± 0.044 | 0.925 ± 0.085 | 0.976 ± 0.08 | 0.85 ± 0.048 | 1.01 ± 0.036 | 0.89 ± 0.02 | 0.939 ± 0.1 | 0.536 ± 0.033 | 1.06 ± 0.034 | 1.04 ± 0.09 | 1.08 ± 0.013 | 0.993 ± 0.015 | 1.11 ± 0.029 | 1.17 ± 0.066 | 0.343 ± 0.025 | 0.126 ± 0.008
7 | HS57T BREAST | 1.02 ± 0.026 | 1.04 ± 0.086 | 1.07 ± 0.056 | 0.995 ± 0.044 | 0.972 ± 0.044 | 1 ± 0.041 | 0.926 ± 0.059 | 0.734 ± 0.061 | 0.919 ± 0.034 | 0.879 ± 0.078 | 0.95 ± 0.074 | 0.965 ± 0.041 | 0.936 ± 0.044 | 0.901 ± 0.054 | 0.326 ± 0.017 | 0.0817 ± 0.0051
8 | HS578T BREAST | 0.839 ± 0.2 | 1.04 ± 0.043 | 0.904 ± 0.054 | 0.856 ± 0.1 | 0.902 ± 0.19 | 0.817 ± 0.15 | 0.793 ± 0.071 | 0.708 ± 0.041 | 0.859 ± 0.075 | 0.947 ± 0.024 | 0.946 ± 0.13 | 0.917 ± 0.046 | 1.05 ± 0.23 | 1.16 ± 0.096 | 0.499 ± 0.08 | 0.188 ± 0.0064
